Activity calls are given as the source filed them. No cut-off for these calls is given here.
What was measured:
[1] = tested on: Mus musculus; test: In vivo inhibition of HIF-2alpha in SCID/Biege mouse xenografted with human 786-O cells assessed as reduction in CCND1 mRNA levels at 10 mg/kg, po bid for 3 days and measured after 12 hrs post last dose by qRT-PCR analysis; format: functional, organism-based
[2] = Volume of distribution at steady state in CD1 mouse at 3 mg/kg, iv by UPLC analysis; format: ADME, organism-based; conditions: in vivo, read-out: Vdss
[3] = tested on: 786-0; test: Antitumor activity against human 786-O cells xenografted in SCID/Biege mouse assessed as tumor regression at 10 mg/kg, po bid for 21 days; format: functional, organism-based
[4] = tested on: Canis familiaris; test: Oral bioavailability in Beagle dog at 10 mg/kg administered via gavage by UPLC analysis; format: ADME, organism-based, Canis lupus familiaris; conditions: in vivo
[5] = target: Cytochrome P450 2D6 (Homo sapiens, UniProt P10635); test: Inhibition of CYP2D6 in human liver microsomes using dextromethorphan as substrate after 10 mins in presence of NADPH by LC-MS/MS analysis; format: ADME
Cytochrome P450 2D6, sequence (P10635 whole entry): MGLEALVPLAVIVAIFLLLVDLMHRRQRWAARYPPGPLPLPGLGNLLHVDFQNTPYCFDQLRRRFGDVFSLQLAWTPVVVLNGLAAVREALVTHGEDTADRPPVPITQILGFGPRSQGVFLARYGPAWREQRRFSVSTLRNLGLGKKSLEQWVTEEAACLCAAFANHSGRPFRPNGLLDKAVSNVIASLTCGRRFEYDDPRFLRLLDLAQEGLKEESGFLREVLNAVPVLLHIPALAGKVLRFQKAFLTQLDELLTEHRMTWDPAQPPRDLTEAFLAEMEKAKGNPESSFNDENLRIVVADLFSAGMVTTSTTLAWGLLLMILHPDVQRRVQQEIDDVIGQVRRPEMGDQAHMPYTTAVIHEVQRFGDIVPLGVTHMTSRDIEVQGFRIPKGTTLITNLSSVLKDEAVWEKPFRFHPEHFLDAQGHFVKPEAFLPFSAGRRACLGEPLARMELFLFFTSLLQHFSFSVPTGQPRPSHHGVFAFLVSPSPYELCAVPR

[6] = tested on: Mus musculus; test: Minimum drug level in SCID/Biege mouse xenografted with human 786-O cells at 10 mg/kg, po bid for 3 days and measured after 12 hrs post last dose by LC-MS/MS analysis; format: ADME, organism-based; conditions: in vivo
[7] = Intrinsic clearance in mouse liver microsomes at 1 uM measured up to 30 mins by LC-MS/MS analysis; format: ADME, microsome; conditions: read-out: CLH
[8] = Intrinsic clearance in human liver microsomes at 1 uM measured up to 30 mins by LC-MS/MS analysis; format: ADME, microsome; conditions: read-out: CLH
[9] = Volume of distribution at steady state in Sprague-Dawley rat at 3 mg/kg, iv by UPLC analysis; format: ADME, organism-based; conditions: in vivo, read-out: Vdss
[10] = target: Cytochrome P450 2C19 (Homo sapiens, UniProt P33261); test: Inhibition of CYP2C19 in human liver microsomes using S-mephenytoin as substrate after 20 mins in presence of NADPH by LC-MS/MS analysis; format: ADME
Cytochrome P450 2C19, sequence (P33261 whole entry): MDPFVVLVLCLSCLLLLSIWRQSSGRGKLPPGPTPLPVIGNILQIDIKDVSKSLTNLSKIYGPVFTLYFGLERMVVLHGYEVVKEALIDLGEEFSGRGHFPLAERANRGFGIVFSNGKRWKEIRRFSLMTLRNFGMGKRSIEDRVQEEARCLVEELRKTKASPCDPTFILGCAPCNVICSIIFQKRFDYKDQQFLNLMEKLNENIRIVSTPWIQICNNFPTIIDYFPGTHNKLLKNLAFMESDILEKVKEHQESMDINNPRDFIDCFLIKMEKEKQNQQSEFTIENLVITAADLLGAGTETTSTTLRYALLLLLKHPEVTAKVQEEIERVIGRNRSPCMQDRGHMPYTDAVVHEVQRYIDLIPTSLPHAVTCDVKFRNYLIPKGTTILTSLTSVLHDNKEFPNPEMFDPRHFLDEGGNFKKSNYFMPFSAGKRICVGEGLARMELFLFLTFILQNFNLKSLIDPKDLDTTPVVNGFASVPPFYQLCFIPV

[11] = target: T1, Cytochrome P450 1A2 (Homo sapiens, UniProt P05177); test: Inhibition of CYP1A2 in human liver microsomes using phenacetin after 10 mins in presence of NADPH by LC-MS/MS analysis; format: ADME
T1 sequence (P05177 whole entry): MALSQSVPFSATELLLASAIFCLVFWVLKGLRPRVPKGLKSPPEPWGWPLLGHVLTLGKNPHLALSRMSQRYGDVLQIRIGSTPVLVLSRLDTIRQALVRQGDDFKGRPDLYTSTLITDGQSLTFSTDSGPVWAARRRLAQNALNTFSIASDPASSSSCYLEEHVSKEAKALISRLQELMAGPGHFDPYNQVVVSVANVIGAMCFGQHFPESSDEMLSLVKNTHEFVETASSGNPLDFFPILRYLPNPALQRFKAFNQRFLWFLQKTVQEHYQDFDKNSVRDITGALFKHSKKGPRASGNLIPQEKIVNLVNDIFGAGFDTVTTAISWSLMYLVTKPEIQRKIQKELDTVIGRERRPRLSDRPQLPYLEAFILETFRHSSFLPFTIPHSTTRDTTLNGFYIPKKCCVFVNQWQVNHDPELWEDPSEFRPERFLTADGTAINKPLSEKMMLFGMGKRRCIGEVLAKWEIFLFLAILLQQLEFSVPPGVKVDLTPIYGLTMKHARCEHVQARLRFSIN

[12] = Volume of distribution at steady state in Beagle dog at 3 mg/kg, iv by UPLC analysis; format: ADME, organism-based, Canis lupus familiaris; conditions: in vivo, read-out: Vdss
[13] = Half life in Sprague-Dawley rat at 10 mg/kg, po via gavage by UPLC analysis; format: ADME, organism-based; conditions: in vivo
[14] = Half life in Beagle dog at 10 mg/kg, po via gavage by UPLC analysis; format: ADME, organism-based, Canis lupus familiaris; conditions: in vivo
[15] = tested on: Rattus norvegicus; test: Drug metabolism in Sprague-Dawley rat assessed as formation of 3-( (4-( ( D ifluoromethyl)-1,1-dioxido-3-oxo-2,3-dihydrobenzo[b]thiophen-5-yl)oxy)-5-fluorobenzonitrile at 10 mg/kg, po by UPLC analysis; format: ADME, organism-based; conditions: in vivo

SMILES	inhibition [1]	Vd [2] [L/kg]	Activity [3]	F [4] [%]	IC50 [5] [µM]	Drug uptake [6]	CLint scaled at 1 µM [7] [mL/min/kg]	CLint scaled at 1 µM [8] [mL/min/kg]	Vd [9] [L/kg]	IC50 [10] [µM]	IC50 [11] [µM]	Vd [12] [L/kg]	half-life [13] [h]	half-life [14] [h]	Drug metabolism [15]
CS(=O)(=O)c1ccc(Oc2cc(F)cc(C#N)c2)c2c1[C@H](O)C(F)(F)C2	Active	7	Active	87	> 50	Active	19.9	4.7	6.24	46	> 50	8.6	3.3	11	–
N#Cc1cc(F)cc(Oc2ccc3c(c2C(F)F)[C@@H](O)C(F)(F)S3(=O)=O)c1	Active	9.5	Active	72	> 50	Active	5.9	< 3	3.5	–	> 50	3.1	3.7	6.7	Metabolite_Detected
